According to patent US20240343828A1, “SPINK1 AS A TARGET FOR THERAPEUTIC INTERVENTION IN LUNG DISEASES” (Northwestern University, priority 2023, published 2024):

Experiments:
[1] = tested on: mouse lung; test: Sircol assay of collagen content; format: in vivo
Description: To further understand the impact of Spink1 on lung fibrosis, Applicant performed the molecular experiment to mutate Spink amino acid sequence. Applicant generated two Spink1 variants (protein 2: R19Y and protein 3: R19A) to denote the ones with activity preserved (protein 2: R19Y) and activity ablation (protein 3: R19A). Applicant used these two variants, together with Spink1 wild type protein and PBS, to conduct the animal experiments using healthy mice (FIG. 15).

[2] = tested on: mouse lung; test: Trichome staining of mouse lung; format: in vivo; details: Spink1-treated mouse lungs
Procedure: (§1) The H&E histology experiment and trichome staining assay were conducted in histology core at northwestern university.

[3] = tested on: mouse lung; test: H&E staining of mouse lung; format: in vivo; details: Spink1-treated mouse lungs
Procedure: as §1

[4] = tested on: mouse lung; test: scRNA-seq analysis of lung tissues from the animal experiment; format: in vivo
Description: Using the lung tissues collected from our animal experiment, Applicant performed the scRNA-seq analysis and identified 36 different cell types within epithelial, endothelial, stromal and immune compartments (FIG. 17A).
Since AT2s are the fibrosis driver^21,23, Applicant performed the differential gene expression between bleomycin vs combo treatment to identify the potential genes that are invoked by Spink1.

[5] = tested on: fibroblasts; test: In vitro fibroblast gene expression with Spink1 incubation; format: cell-based; details: different Spink1 concentrations, 24 hours
Procedure: Applicant performed an in vitro experiment to further validate the functional role of SPINK1 in mediating fibroblasts and aSMA+ stromal cells. Applicant incubated fibroblasts with different concentration of recombinant mouse Spink1 protein for 24 hours and tested the gene expression level. […] However, the expression level of aSMA was elevated in response to Spink1 treatment (FIG. 23A). This implied that Spink1 could drive the differentiation of fibroblast toward aSMA+ stromal cells.

[6] = tested on: fibroblasts; test: Fibroblast proliferation with Spink1 incubation; format: cell-based
Procedure: FIGS. 23A-23C: In vitro experiment to validate the functional role of Spink1 in mediating stromal cell activity. Gene expression changes in fibroblasts with the incubation of different concentration of Spink1 protein (FIG. 23A). The proliferation rate of fibroblasts with the incubation of Spink1 (FIG. 23B). The proliferation rate was calculated as the difference between end point and start point, followed by the division of start point value. Zero proliferation rate indicates no proliferation is detected. The changes of aSMA gene in fibroblasts with the incubation of Spink1 and EGFR inhibitor of AG1468 (FIG. 23C).
Applicant also tested the proliferation activity of fibroblast with the incubation of Spink1. […] Furthermore, Applicant hypothesized that the differentiation of fibroblast toward aSMA+ cells could be EGFR pathway dependent.

[7] = tested on: mouse; details: mice with bleomycin pre-treatment
Procedure: Two sets of experiment were set up: one set with bleomycin pretreatment and the other without bleomycin pretreatment(FIG. 10). Applicant labeled as the groups as: PBS, recombinant Spink1 protein, bleomycin and the combo of bleomycin and recombinant Spink1 protein (the last two groups are the one with bleomycin pretreatment).
For experiment one, Applicant have four groups as illustrated in FIG. 10. Intrathecal administration was used in this study and 20 ug recombinant protein was injected each time. For the group without bleomycin pretreatment, the animals were injected every third day until they were killed at day 22. For the group with bleomycin pretreatment, the animals were pretreated with bleomycin and then the first dose of recombinant Spink1 protein was injected at day 14 after the bleomycin pretreatment. Another 4 doses were given at day 21, day 24, day 27 and day 30. The animals were killed at day 34 and the tissues were harvested and frozen/fixed for further analysis.

[8] = pathway enrichment, PBS vs Spink1 treatment

Substance: Spink1: recombinant mouse Spink1 (Spink3) protein, homologue of human SPINK1, Serine protease inhibitor Kazal-type 1 (AKVTGKEASCHDAVAGCPRIYDPVCGTDGITYANECVLCFENRKRIEPVLIRKGGPC; UniProt P09036 24-80, looked up)
- collagen accumulation (Sircol) ([1]; healthy animals, no bleomycin pretreatment): can induce the collagen accumulation
- collagen content (Sircol) ([1]; mice with Spink1 treatment, 20 ug per injection): accumulative collagen content
- collagen deposition (trichome staining) [2]: high level of collagen accumulated
- alveolar damage and immune cell infiltration (H&E) [3]: notable alveolar damage and immune cell infiltration
- gene set "Negative regulation of fibroblast proliferation" (GSEA) ([4]; AT2, combo vs bleomycin): induces the down-regulation
- phagosome maturation gene set (GSEA) ([4]; AT2, combo vs bleomycin): significantly down-regulated
- expression level of Cdc42 ([4]; mouse treated with Spink1): significantly decreased expression level
- apoptosis of aSMA+ cells [4, 8]: arrested the apoptosis of aSMA+ cells
- wound healing pathway in fibroblasts [4, 8]: downregulated
- expression level of Ftl1 ([4]; regardless of the bleomycin pretreatment): seems to vanish
- expression level of Col1a1 [5]: not significantly changed
- expression level of Fibronectin [5]: not significantly changed
- expression level of aSMA [5]: elevated
- proliferation rate of fibroblast ([6]; 24 hr Spink1 incubation): high proliferation rate
- proliferation rate of fibroblast ([6]; 48 hr incubation): increased rate disappears
- body weight change [7]: induce weight loss

Substance: bleomycin [reference compound]
- Cthrc1+ fibroblasts in stromal compartment ([4]; mouse lung scRNA-seq): induces the overproduction of Cthrc1^+ fibroblasts

Substance: protein 3: R19A: Spink1 variant R19A with activity ablation (AKVTGKEASCHDAVAGCPAIYDPVCGTDGITYANECVLCFENRKRIEPVLIRKGGPC; UniProt P09036 24-80, looked up, variant R19A)
- collagen accumulation (Sircol), Spink1 variants ([1]; healthy mice, 6 doses, compared with wild type Spink1 and PBS): fails to induce collagen accumulation
